Patent publication US20200281949A1, “METHODS FOR TREATING CASTRATION-RESISTANT AND CASTRATION-SENSITIVE PROSTATE CANCER” (TOLERO PHARMACEUTICALS, INC., priority 2018, published 2020)

What was measured:
[1] = Phase I dose-escalation study in patients with advanced solid tumors: safety; type: in vivo, human
Source text: Patients with advanced metastatic or progressive solid tumors who were refractory to, or intolerant of, established therapy known to provide clinical benefit for their condition were enrolled. Cohorts of 3-6 patients each received escalating doses of compound of structure (I) using a modified Fibonacci dose escalation approach. Once the optimal dose has been established, additional patients may be enrolled to confirm safety and to explore efficacy. Twenty additional patients will be enrolled in an expansion cohort at the maximum tolerated dose (MTD).
This is an ongoing Phase 1, open-label, dose-escalation, safety, PK and PD study. The proposed starting dose and schedule for oral compound of structure (I) was a 1-mg flat dose once daily (QD) for 14 days followed by a 7-day drug-free recovery period (each cycle=21 days). In the absence of dose-limiting toxicities (DLTs) in the first cohort of at least 3 patients, the dose was increased using a modified Fibonacci dose escalation scheme, and BID dosing commenced according to the dose escalation schedule described in Table 8. The first patient in cohort 6 has been enrolled at 8 mg compound of structure (I) BID. The baseline demographics of the first 14 patients enrolled in the study are described in Table 6.
DLT was defined as any one of the following events observed in cycle 1, regardless of investigator attribution, unless there was a clear alternative explanation: • 1. Grade 3 or greater febrile neutropenia • 2. Grade 4 neutropenia for ≥7 consecutive days • 3. Grade 4 thrombocytopenia or Grade 3 thrombocytopenia with clinically significant bleeding or that requires a platelet transfusion • 4. Grade 3 or 4 nonhematologic AEs will be considered dose limiting, regardless of duration aside from the specific parameters described herein • 5. Grade 4 nausea, vomiting, or diarrhea, regardless of duration • 6. Dosing delays≥1 week due to treatment-emergent adverse events (TEAEs) or related severe laboratory test values • 7. Any AST and ALT elevation>3× ULN (if baseline value was normal) or ≥3× the baseline value (if baseline value was abnormal) accompanied by serum bilirubin levels>2×ULN • 8. […] Any Grade≥3 elevations in creatinine • 10. Any Grade 5 toxicity

[2] = system: PC-3 prostate tumor xenograft; assay: Tumor growth in PC-3 mouse xenograft model; type: in vivo; conditions: oral gavage 1.25 mg/kg BID x 21 days, or 7.5 or 15 mg/kg q7d x 3
Protocol: The effects of the compound of structure (I) on tumor growth in the PC-3 mouse xenograft model were also assessed. PC-3 prostate tumor cells were maintained in vitro as a monolayer culture in Ham's F12K medium supplemented with 10% fetal bovine serum at 37° C. in an atmosphere of 5% CO2 in air. The cells in an exponential growth phase were harvested and counted for tumor inoculation. Each mouse was inoculated subcutaneously at the right flank region with PC-3 prostate tumor cells (5×10^6 cells) in 0.1 ml of PBS for tumor development. When the mean tumor size reached approximately 100 mm^3, the mice were randomized and divided into study groups. Compound of structure (I) was administered at 1.25 mg/kg twice daily (BID) for 21 days, or 7.5 mg/kg or 15 mg/kg once weekly (q7d×3) by oral gavage. Tumor volumes were measured twice weekly in two dimensions using a caliper, and the volume expressed in mm^3 using the formula: V=(L×W×W)/2, where V is tumor volume, L is tumor length (the longest tumor dimension) and W is tumor width (the longest tumor dimension perpendicular to L).

[3] = system: subcutaneous 22Rv1 human prostate cancer xenograft; assay: Efficacy study in the 22Rv1 xenograft prostate cancer model; type: in vivo, male BALB/c nude mice; conditions: castrated mice, 21 days; doses per Table 1: Cmpd Str (I) 1.25 mg/kg p.o. BID or 10 mg/kg p.o. Q7D; enzalutamide 30 mg/kg p.o. QD; docetaxel 10 mg/kg i.p. Q7D; ABT199 100 mg/kg p.o. QD
Protocol: The objective of this study was to evaluate the in vivo therapeutic efficacy of the compound of structure (I) or a pharmaceutically acceptable salt or zwitterionic form thereof in the treatment of a subcutaneous 22Rv1 human prostate cancer xenograft model. For the 22Rv1 model, efficacy of the compound of structure (I) was evaluated in male BALB/c nude mice. Cobalt-60 irradiation of all mice was performed 2 days before the tumor inoculation at 2 Gy (1 Gy=100 rads). Each mouse was inoculated at the right flank with 1×10^7 tumor cells in 0.1 ml of PBS mixed with matrigel (1:1). The date of tumor cell inoculation was denoted as day 0.
Castration was performed when mean tumor volume reached approximately 200 mm^3. Mice were anesthetized with ketamine/xylazine; surgical castration was performed via a midline scrotal incision allowing bilateral access to the hemiscrotal contents; after exposing each testicle, a 6-0 Vicryl suture was used to ligate the spermatic cord and then remove the testicle; the scrota and skin was then closed with 6-0 Vicryl suture, separately. Treatments started when the mean tumor volume re-grew to approximately 100 mm^3.
After tumors reached the appropriate size, approximately 100-200 mm^3, mice were randomized into treatment groups 1-11, which are shown in Table 1. Each treatment was administered starting on day 15, at a dosing volume of 5 μL/g and continued for 21 days (or 22 days for groups with treatment at Q7D). For groups with treatment at Q7D×3 weeks, dosing was performed on days 1, 8, and 15 post-randomization, and the study was terminated on day 22 post randomization. The combined treatment intervals were each 0 h, and the interval for BID was 8 h. Randomization was performed based on the “Matched distribution” method (StudyDirector™ software, version 3.1.399.19) randomized block design.
Tumor volumes were measured twice per week after randomization in two dimensions using a caliper, and the volume was expressed in mm^3 using the formula: “V=(L×W×W)/2,” where V is tumor volume, L is tumor length (the longest tumor dimension) and W is tumor width (the longest tumor dimension perpendicular to L). The average tumor volume for each group, as a percentage of the average tumor volume of the control group (group 1), is shown in FIG. 6. […] The percentage shown in FIG. 7 (% T/C) is calculated as mean(T)/mean(C)*100%, with “T” representing tumor volume and “C” representing tumor volume for group 1.
T and C are the mean tumor volume (or weight) of the treated groups and control group (group 1), respectively, on a given day. The percentages shown in FIG. 10 are calculated as % ΔT/C=(mean(T)−mean(T0))/(mean(C)−mean(C0))*100%, with “0” indicating the initial timepoint.

[4] = Phase I dose-escalation study in patients with advanced solid tumors: plasma PK; type: in vivo, human; conditions: any timepoint
Protocol: Plasma PK parameters of compound of structure (I) and alvocidib were evaluated in Cohorts 1-5 at specific timepoints during the study. Blood was collected from patients in Cohorts 1-5 according to the pharmacokinetic sampling schedule described in Table 9.
PK parameters were estimated using standard noncompartmental methods. Actual sample collection times were used rather than scheduled collection times. Plasma concentrations below the limit of quantification were treated as 0. Imbedded missing plasma concentrations (e.g., missing values between two observed values) were estimated using linear […]. This is consistent with using the trapezoidal rule to calculate AUC. Other missing plasma concentrations were excluded from calculations to estimate PK parameters.

[5] = patients, oral, Cohorts 1-5 (1 mg QD to 6 mg BID), to date

CN1CC[C@H](c2c(OP(=O)(O)O)cc(O)c3c(=O)cc(-c4ccccc4Cl)oc23)[C@H](O)C1 [compound of structure (I)]
Treatment-emergent adverse events, Grade 3: Anemia ([1]; number of patients (%), N = 14): 1 (7%) | Treatment-emergent adverse events, Grade 3: Chest Pain ([1]; number of patients (%), N = 14): 1 (7%) | Treatment-emergent adverse events, Grade 3: Haematuria ([1]; number of patients (%), N = 14): 1 (7%) | Treatment-emergent adverse events, Grade 3: Hypotension ([1]; number of patients (%), N = 14): 1 (7%) | Treatment-emergent adverse events, Grade 3: Hypoxia ([1]; number of patients (%), N = 14): 1 (7%) | Treatment-emergent adverse events, Grade 3: Malignant Pleural Effusion ([1]; number of patients (%), N = 14): 1 (7%) | Treatment-emergent adverse events, Grade 3: Pain ([1]; number of patients (%), N = 14): 1 (7%) | Treatment-emergent adverse events, Grade 3: Swelling ([1]; number of patients (%), N = 14): 1 (7%) | dose-limiting diarrhea or neutropenia [1, 5]: no evidence of dose-limiting diarrhea or neutropenia | unexplained toxicity [1, 5]: no unexplained toxicity | tumor growth in PC-3 mouse xenograft model [2]: inhibited tumor growth | anti-cancer activity in the 22Rv1 xenograft model (tumor growth) [3]: modest activity | detection of compound of structure (I) in plasma ([4]; Cohort 2, 1 mg BID oral, any sample): no compound of structure (I) was detected | detectable compound of structure (I) in plasma ([4]; across cohorts (FIGS. 24G, 24H), oral Formulation No. 401-01): no detectable compound of structure (I)
